Test results taken from BindingDB's records for doi:10.1016/j.chembiol.2016.10.011 (H. Lee Moffitt Cancer Center & Research Institute, 2016).

Columns and labels:
[1] = biological target: Poly [ADP-ribose] polymerase 1 (Homo sapiens, UniProt P09874); experiment: In Vitro PARP1 Activity Assay
Description: Inhibition of PARP1 was assessed using the Universal Chemiluminescent PARPKit. Luminescence readings were normalized to controls and fit to a sigmoidaldose-response curve using GraphPad Prism 6 to determine IC50 values.

[2] = biological target: T1, GDH/6PGL endoplasmic bifunctional protein (Homo sapiens, UniProt O95479); experiment: H6PD Activity Assay
T1 sequence (O95479 whole entry): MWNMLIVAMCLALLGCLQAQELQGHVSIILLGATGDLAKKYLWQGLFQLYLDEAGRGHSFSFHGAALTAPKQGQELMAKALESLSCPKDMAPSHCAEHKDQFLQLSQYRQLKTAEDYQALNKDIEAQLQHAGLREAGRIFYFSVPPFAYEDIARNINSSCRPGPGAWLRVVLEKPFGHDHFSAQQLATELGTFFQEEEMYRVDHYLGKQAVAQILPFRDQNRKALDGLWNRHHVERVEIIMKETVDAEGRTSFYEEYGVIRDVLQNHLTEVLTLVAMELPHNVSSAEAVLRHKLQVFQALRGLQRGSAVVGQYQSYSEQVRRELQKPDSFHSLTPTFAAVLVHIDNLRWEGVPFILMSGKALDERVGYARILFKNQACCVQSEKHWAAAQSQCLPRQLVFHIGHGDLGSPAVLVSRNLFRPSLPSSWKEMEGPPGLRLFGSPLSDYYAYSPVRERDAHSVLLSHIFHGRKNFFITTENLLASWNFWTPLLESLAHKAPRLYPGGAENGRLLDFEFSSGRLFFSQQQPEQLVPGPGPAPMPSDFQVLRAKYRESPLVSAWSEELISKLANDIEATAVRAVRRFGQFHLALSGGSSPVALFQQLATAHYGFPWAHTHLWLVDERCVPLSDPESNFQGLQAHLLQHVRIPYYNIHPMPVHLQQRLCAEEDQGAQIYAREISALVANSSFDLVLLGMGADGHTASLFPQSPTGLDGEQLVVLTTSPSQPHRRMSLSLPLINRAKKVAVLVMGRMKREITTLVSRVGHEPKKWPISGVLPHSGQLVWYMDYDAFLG
Description: HEK293 H6PD-OE and HEK293 pellets were lysed and the lysate was quantified with the Bradford protein assay. Reaction mix containing galactose-6-phosphate (Gal6P) was combined with increasing concentrations of PARPi or DMSO. As an additional control, reaction mix without substrate was combined with HEK293 H6PD-OE lysate. Lysate from HEK293 or HEK293 H6PD-OE was added to each well to start the reactions. The absorbance at 340 nm (NADPH) was measured for 90 min at 10 min intervals. The 60 min data, which were within the linear range, was used for analysis. Background absorbance was subtracted and the H6PD activity of theHEK293 H6PD-OE lysates treated with PARPi was normalized to the DMSO control.

Poly [ADP-ribose] polymerase 1, sequence (P09874 whole entry): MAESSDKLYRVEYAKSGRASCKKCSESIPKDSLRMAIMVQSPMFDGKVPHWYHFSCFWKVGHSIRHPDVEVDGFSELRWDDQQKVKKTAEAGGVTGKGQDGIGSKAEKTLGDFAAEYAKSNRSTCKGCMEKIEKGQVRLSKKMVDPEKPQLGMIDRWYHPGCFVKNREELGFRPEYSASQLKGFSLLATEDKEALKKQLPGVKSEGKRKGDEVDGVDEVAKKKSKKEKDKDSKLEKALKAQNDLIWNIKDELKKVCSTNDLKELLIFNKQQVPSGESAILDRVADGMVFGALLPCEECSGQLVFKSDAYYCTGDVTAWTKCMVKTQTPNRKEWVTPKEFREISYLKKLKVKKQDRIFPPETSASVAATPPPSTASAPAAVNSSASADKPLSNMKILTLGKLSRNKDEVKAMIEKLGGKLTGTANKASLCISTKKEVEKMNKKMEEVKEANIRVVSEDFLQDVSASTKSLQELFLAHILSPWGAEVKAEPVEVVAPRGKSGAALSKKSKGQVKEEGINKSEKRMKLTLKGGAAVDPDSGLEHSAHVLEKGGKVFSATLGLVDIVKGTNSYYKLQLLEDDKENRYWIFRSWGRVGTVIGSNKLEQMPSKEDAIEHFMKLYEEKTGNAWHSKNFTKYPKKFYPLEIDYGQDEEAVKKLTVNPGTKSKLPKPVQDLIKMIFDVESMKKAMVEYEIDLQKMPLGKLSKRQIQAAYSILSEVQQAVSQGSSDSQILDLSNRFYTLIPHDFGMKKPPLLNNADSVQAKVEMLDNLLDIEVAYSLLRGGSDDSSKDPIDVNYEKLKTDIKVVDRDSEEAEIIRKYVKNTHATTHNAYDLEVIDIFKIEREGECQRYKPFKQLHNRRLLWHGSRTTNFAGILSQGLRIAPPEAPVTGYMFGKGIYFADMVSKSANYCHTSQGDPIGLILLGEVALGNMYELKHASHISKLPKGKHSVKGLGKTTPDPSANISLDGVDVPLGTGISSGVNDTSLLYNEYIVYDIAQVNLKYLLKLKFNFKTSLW

Row | Compound | IC50 [1] [nM] | IC50 [2] [µM]
1 | NCCCN1CCC[C@@H](c2ccc(-n3cc4cccc(C(N)=O)c4n3)cc2)C1 [c-Niraparib] | 48.4 | 
2 | NCCCC(=O)N1CCN(C(=O)c2cc(Cc3n[nH]c(=O)c4ccccc34)ccc2F)CC1 [c-Olaparib] | 5.9 | 
3 | C[C@]1(c2nc3c(C(N)=O)cccc3[nH]2)CCCN1CCCN [c-Veliparib] | 8.4 | 
4 | CNCc1ccc(-c2[nH]c3cc(F)cc4c3c2CCNC4=O)cc1 [AG-014699] |  | 18
5 | CN(CCCN)Cc1ccc(-c2[nH]c3cc(F)cc4c3c2CCNC4=O)cc1 [c-Rucaparib] | 4.4 | 
